In US10653648B2, “Histone acetyltransferase activators and compositions and uses thereof” (THE TRUSTEES OF COLUMBIA UNIVERSITY IN THE CITY OF NEW YORK, priority 2016, dated 2020):

Tests used:
[1] = cited from earlier work
[2] = test system: Pfeiffer (EP300 wt/CREBBP mut); assay: Synergy with romidepsin, Excess Over Bliss; assay type: cell-based; details: in combination with romidepsin, 72 hrs
Experimental: (§1) FIGS. 22A-E show the synergy effect of JF1, a HAT activator compound, with romidepsin (a pan-class HDAC inhibitor) in B-cell lymphoma cell lines. Synergy between JF1 and romidepsin was evaluated in Pfeiffer (EP300 wt/CREBBP mut) and SUDHL-10 cells (EP300 mut/CREBBP Δ). Excess Over Bliss was calculated. Drug synergy will be confirmed by Excess over bliss (EOB). Bliss is calculated by the following formula: X=(A+B)−(A*B); where X designates the combined response for the two single compounds with effects (inhibition) A and B. The difference between Bliss and observed growth inhibition (Y) induced by combinations of drugs A and B at the same dose is the termed EOB (EOB=Y−X) 18,19. An EOB>10 connotes synergy. […] Synergy effect of JF1 and romidepsin was also assessed in a panel of B-cell lymphoma cell lines (N=5) (FIGS. 22C-22E). Cells were treated by different concentrations of JF1 and romidepsin for 48 hrs (FIG. 22C) and 72 hrs (FIG. 22D) and an Excess Over Bliss was calculated for both time points for all five cell lines. SUDHL-6 and Pfeiffer (Bold) were treated 2, 2.5, […] JF1, whereas the rest of cell lines were treated with 2, 3, 4 μM JF1. Synergy is defined by an Excess Over Bliss of 10. […]
(§2) Cells were exposed to increasing concentrations of YF2 and romidepsin in various combinations for 72 hrs and Excess Over Bliss (EOB) was calculated.

[3] = test system: seven B-cell lymphoma cell lines; assay: Synergy with romidepsin, Excess Over Bliss, cell line panel; assay type: cell-based; details: in combination with romidepsin, 72 hrs
Experimental: as §1, §2

[4] = test system: SUDHL-6 (EP300 mut/CREBBP mut); assay: Histone acetylation quantified by mass spectrometry; assay type: cell-based; details: combination with romidepsin (1.5 nM); YF2 6 uM, JF1 3 uM; 48 hours
Experimental: (§3) FIGS. 25A-B compare the synergy effects that HAT-activators JF1 and YF2 in combination with romidepsin have on histone acetylation in B-cell lymphoma cell lines, as quantified by mass spectrometry. In these experiments cells were seeded at 5,000 cells/mL and exposed to YF2 (6 uM), JF1 (3 uM) and romidepsin (1.5 nM) alone and in combinations for 48 hours. Following treatment, SUDHL-6 (EP300 mut/CREBBP mut, FIG. 25A) and SUDHL-10 cells (EP300 mut/CREBBP mut, FIG. 25B) were harvested for histone extraction.
For each, a synergy effect, calculated as a fold change of treatment vs. control, was observed showing an increase in histone acetylation for JF1/romidepsin and YF2/romidepsin compared to individual treatment of the cells with either JF1, YF2, or romidepsin alone (FIG. 25A).

[5] = test system: SUDHL-10 cells (EP300 mut/CREBBP mut); assay: as above; assay type: cell-based; details: combination with romidepsin (1.5 nM), YF2 6 uM, 48 hours
Experimental: as §3
The synergy trend for the SUDCL-6 cell line is evident for SUDCL-10 as well (FIG. 25B). In the same manner as described above, SUDHL-10 cells were treated separately with romidepsin, JF1, YF2, JF1/romidepsin, and YF2/romidepsin and the fold change in histone acetylation was measured.

SUDHL-10 = assay: Histone H3 acetylation by Western Blot; assay type: cell-based; details: in combination with romidepsin, 48 hours
Experimental: (§4) FIG. 26 provides a Western Blot showing the effect of JF1 and YF2 alone and in combination with romidepsin on histone acetylation in HAT-mutated cells lines. Cells were exposed to YF2 and romidepsin alone and in combinations for 48 hours in SUDHL-6 and SUDHL-10 (EP300 mut/CREBBP mut). The synergistic effect of YF2 on histone acetylation was evaluated by Western Blot with histone H3 serving as loading control.

SUDHL-6 = assay: Histone H3 acetylation by Western Blot; assay type: cell-based; details: in combination with romidepsin, 48 hours
Experimental: as §4

For `CCOc1ccccc1C(=O)Nc1ccc(Cl)c(C(F)(F)F)c1` [CTB], the solubility [1] is given as “insoluble”.

For `CCCCCCCCCCCCCCCc1cccc(OCC)c1C(=O)Nc1ccc(Cl)c(C(F)(F)F)c1` [CTPB], the solubility [1] is listed as “insoluble”.

In the case of `CCOc1cccc(OCCN(C)C)c1C(=O)Nc1ccc(Cl)c(C(F)(F)F)c1` [YF2], the “strong synergy response (EOB of at least 20)” value [2] is reported as “fail to show a strong response”, the “cell lines with strong synergy (EOB of at least 20)” value [3] is reported as 6 out of 7 and the “cell lines with strong synergy (EOB of at least 20), percentage” value [3] is reported as 86%. For the same compound, the “H3:K9AC increase in acetylation vs. YF2 or JF1 alone” value [4] was 8 fold, the “H3:K9AC increase in acetylation vs. control” value [4] was 10 fold and the “H3:K9AC increase in acetylation vs. romidepsin” value [4] was about 2 fold. For the same compound, the “global acetylation of histones compared with single agent effects” value [4] was “induced the global acetylation of histones”, the “global acetylation of histones compared with single agent effects” value ([5]; JF1 3 uM) was “induced the global acetylation of histones” and the “H3:K9AC maximum synergy effect on acetylation” value [5] was “about 1.6 fold”. The “global acetylation of Histone H3 compared with single agent effects” value (SUDHL-10) was “induced the global acetylation of Histone H3” and the “global acetylation of Histone H3 compared with single agent effects” value (SUDHL-6) was “induced the global acetylation of Histone H3”.
